{
  "source": "patent US5599789A",
  "about": "“Method for the treatment of tumours and sarcomas” (Amrad Corporation Limited, priority 1991, dated 1997)",
  "key": {"[1]": {"tested_on": "LIF receptors on different Ewing sarcoma cells", "assay": "125I-hLIF binding, second independent Scatchard analysis", "design": "species or system human", "conditions": "read-out: Equilibrium dissociation constant", "experimental": "(§1) A cloned Ewing sarcoma cell line Al5 (7×10^6 per point) in 100 μl of RPMI-medium containing 10 mM Hepes buffer pH 7.4 and 10% v/v foetal calf serum were incubated with increasing concentrations of ^125 I-hLIF (E. coli derived) (5000-800,000 cpm: 100,000 cpm/ng) with or without 5 μg/ml of unlabelled hLIF for 3 hrs on ice. The incubation mixture was then layered over 180 μl cold foetal calf serum, centrifuged at top speed in an Eppendoff microfuge for 10 sec and the tip of the tube containing the cell pellet cut with a scalpel blade and removed for counting in a gamma counter."}, "[2]": {"tested_on": "Ewing's Sarcoma cell line Al (uncloned)", "assay": "Colony formation in semi-solid agar cultures, Al (uncloned) cells", "type": "cell-based, human", "conditions": "Al(uncloned), 5,000 cells, day 18", "experimental": "(§2) Tumour cells obtained from biopsy and bone marrow specimens from patients with Ewing's Sarcoma were used in these studies. Approval for this project has been obtained from the Ethics Committee of the Royal Children's Hospital.\n(§3) Single cell suspensions of tumour cells were obtained by mechanical disruption with an 18G or 21G needle or by pipetting, followed by incubation with dispase II (Boehringer) at a concentration of 1.2 units per ml for 10 minutes at 37° C. Prior to the addition to agar-medium the cells were vortexed gently to prevent clumping.\n(§4) Clonal cell lines were grown in Iscove's Modified Dulbecco's Medium (IMDM) supplemented with 10% v/v foetal calf serum (FCS; CSL Limited, Melbourne, Australia) and were passaged either weekly or twice weekly. The characteristics of the Ewing Sarcoma cell lines used herein as described below:\n(§5) The tumour cells were immobilised in 0.3% w/v agar containing Iscove's Modified Dulbecco's Medium (IMDM) and 10% v/v FCS. […] Cultures were scored for the presence of colonies (>40 cells) or clusters (<40 cells). The number of cells plated per culture ranged from 500 to 10,000 per ml. Colonies were counted on an Olympus dissecting microscope.\n(§6) IL-1, IL-3, IL-4, IL-6, M-CSF, G-CSF, GM-CSF, Stem Cell Factor (SCF), TNFα, TGFα, TGFβ, EGF, aFGF, bFGF, NGF, IGF I, IGF II, PDGF and IFN-γ.\n(§7) The recombinant human leukaemia inhibitory factor (LIF) was obtained from AMRAD Corporation Limited, Melbourne, Australia."}, "[3]": {"tested_on": "LIF receptors on Ewing sarcoma cell line Al5", "assay": "125I-hLIF binding, Scatchard analysis, cloned line Al5", "design": "species or system human", "conditions": "Al5 cells, 3 hrs on ice, Scatchard slope, read-out: Equilibrium dissociation constant", "experimental": "as §1"}, "[4]": {"tested_on": "Ewing's Sarcoma cell line Al-8", "assay": "Colony formation in semi-solid agar cultures, Al-8 cells", "type": "cell-based, human", "conditions": "Al-8, 1,000 cells, day 18", "experimental": "as §2, §3, §4\n(§8) Cell lines derived from the above primary cell lines (Al and Cu) are identified by an Arabic numeral (e.g. Al-1, Al-5, Al-8 or Cu-1).\nas §5, §6, §7"}, "[5]": {"tested_on": "Ewing's Sarcoma cell line Cu-1", "assay": "Colony formation in semi-solid agar cultures, Cu-1 cells", "type": "cell-based, human", "conditions": "Cu-1, 10,000 cells, day 18", "experimental": "as §2, §3, §4, §8, §5, §6, §7"}, "Ewing's Sarcoma cells": {"tested_on": "Ewing's Sarcoma cells", "assay": "Colony formation in agar cultures, a number of different Ewing's cell lines (summary statements)", "type": "cell-based, human", "excerpt": "as §5"}, "[6]": {"assay": "Toxicity of hLIF in mice, daily subcutaneous injections", "type": "in vivo", "experimental": "A number of preliminary experiments were performed to determine the appropriate daily dose of hLIF in mice. Mice were injected with high doses of hLIF (100 microgram per mouse). These studies led to death of the mice within 2 weeks of daily subcutaneous injections of LIF. Studies using lower doses (5-20 micrograms per mouse) of hLIF, led to survival of most of the mice for over 20 days. Retro-orbital bleeds were performed on the first 3 days to determine platelet counts. In all mice subcutaneously injected daily with 1 microgram or more of hLIF, the platelet count rose in the first 3 days (26-60% increment on baseline pretreatment levels). In this study an amount of 20 μg of hLIF was chosen to be subcutaneously injected daily into SCID mice bearing Ewing's Sarcoma tumours."}, "[7]": {"tested_on": "Ewing's Sarcoma cell line Al-1", "assay": "Colony formation in semi-solid agar cultures, Al-1 cells", "type": "cell-based, human", "conditions": "day 18", "experimental": "as §2, §3, §4, §8, §5, §6, §7"}, "[8]": {"tested_on": "Ewing's Sarcoma cell line Al-5", "assay": "Colony formation in semi-solid agar cultures, Al-5 cells", "type": "cell-based, human", "conditions": "Al-5, 1,000 cells, day 18", "experimental": "as §2, §3, §4, §8, §5, §6, §7"}, "[9]": {"tested_on": "Ewing's sarcoma cells from cell line Al-5", "assay": "Clonogenicity in agar after LIF pretreatment in suspension culture", "type": "cell-based, human", "experimental": "Ewing's sarcoma cells from cell line Al-5 in suspension cultures were incubated for seven days in the presence or absence of 100 ng/ml LIF prior to inoculation of replicate agar plates with 5×10^3 cells per ml which were then incubated for a further 18 days before colonies were scored. In all cases, the frequency of colonies obtained from LIF-pretreated cells was 35-55% lower compared to control cells."}, "[10]": {"conditions": "stimulus 100 ng, mean of duplicate colony counts"}},
  "data": [
    {"substance": "LIF: recombinant human leukaemia inhibitory factor (E. coli derived) from AMRAD Corporation Limited", "values": [
      {"measurement": "Kd", "setting": "[1]", "result": 0.13, "unit": "nM"},
      {"measurement": "Colonies/Cultures", "setting": "[2]; stimulus 0.01 ng", "result": 222},
      {"measurement": "Colonies/Cultures", "setting": "[2]; stimulus 0.1 ng", "result": 205},
      {"measurement": "Colonies/Cultures", "setting": "[2]; stimulus 1 ng", "result": 160},
      {"measurement": "Colonies/Cultures", "setting": "[2]; stimulus 10 ng", "result": 10},
      {"measurement": "Colonies/Cultures", "setting": "[2]; [10]", "result": 8},
      {"measurement": "Kd", "setting": "[3]", "result": 0.09, "unit": "nM"},
      {"measurement": "Colonies/Cultures", "setting": "[4]; stimulus 0.01 ng", "result": 68},
      {"measurement": "Colonies/Cultures", "setting": "[4]; stimulus 0.1 ng", "result": 29},
      {"measurement": "Colonies/Cultures", "setting": "[4]; stimulus 1 ng", "result": 23},
      {"measurement": "Colonies/Cultures", "setting": "[4]; stimulus 10 ng", "result": 6},
      {"measurement": "Colonies/Cultures", "setting": "[4]; [10]", "result": 3},
      {"measurement": "Colonies/Cultures", "setting": "[5]; stimulus 0.01 ng", "result": 542},
      {"measurement": "Colonies/Cultures", "setting": "[5]; stimulus 0.1 ng", "result": 430},
      {"measurement": "Colonies/Cultures", "setting": "[5]; stimulus 1 ng", "result": 192},
      {"measurement": "Colonies/Cultures", "setting": "[5]; stimulus 10 ng", "result": 97},
      {"measurement": "Colonies/Cultures", "setting": "[5]; [10]", "result": 125},
      {"measurement": "Effect on colony counts", "setting": "Ewing's Sarcoma cells; between 0.1 and 100 ng LIF per culture, agar cultures, different Ewing's cell lines", "result": "able to significantly reduce colony counts"},
      {"measurement": "Magnitude of colony reduction relative to other growth factors tested", "setting": "Ewing's Sarcoma cells; culture of Ewing's Sarcoma cells", "result": "greater than those induced by other growth factors tested"},
      {"measurement": "Number of colonies compared to untreated controls", "setting": "Ewing's Sarcoma cells; culture of Ewing's Sarcoma cells, dose-dependent", "result": "significantly reduces the number of colonies"},
      {"measurement": "Platelet count rise, increment on baseline pretreatment levels", "setting": "[6]; 1 microgram or more daily subcutaneously, first 3 days", "result": "26-60%"},
      {"measurement": "Survival of most of the mice", "setting": "[6]; 5-20 micrograms per mouse", "result": "over 20 days"},
      {"measurement": "Time to death of the mice", "setting": "[6]; 100 microgram per mouse, daily subcutaneous injections", "result": "≤ 2", "unit": "weeks"},
      {"measurement": "Colonies/Cultures", "setting": "[7]; Al-1, 1,000 cells, stimulus 0.01 ng", "result": 50},
      {"measurement": "Colonies/Cultures", "setting": "[7]; Al-1, 1,000 cells, stimulus 0.1 ng", "result": 39},
      {"measurement": "Colonies/Cultures", "setting": "[7]; Al-1, 1,000 cells, stimulus 1 ng", "result": 23},
      {"measurement": "Colonies/Cultures", "setting": "[7]; Al-1, 1,000 cells, stimulus 10 ng", "result": 24},
      {"measurement": "Colonies/Cultures", "setting": "[7]; Al-1, 1,000 cells, stimulus 100 ng, mean of duplicate colony counts", "result": 32},
      {"measurement": "Colonies/Cultures", "setting": "[7]; Al-1, 10,000 cells, stimulus 0.01 ng", "result": 695},
      {"measurement": "Colonies/Cultures", "setting": "[7]; Al-1, 10,000 cells, stimulus 0.1 ng", "result": 305},
      {"measurement": "Colonies/Cultures", "setting": "[7]; Al-1, 10,000 cells, stimulus 1 ng", "result": 129},
      {"measurement": "Colonies/Cultures", "setting": "[7]; Al-1, 10,000 cells, stimulus 10 ng", "result": 17},
      {"measurement": "Colonies/Cultures", "setting": "[7]; Al-1, 10,000 cells, stimulus 100 ng, mean of duplicate colony counts", "result": 18},
      {"measurement": "Colonies/Cultures", "setting": "[8]; stimulus 0.01 ng", "result": 47},
      {"measurement": "Colonies/Cultures", "setting": "[8]; stimulus 0.1 ng", "result": 27},
      {"measurement": "Colonies/Cultures", "setting": "[8]; stimulus 1 ng", "result": 25},
      {"measurement": "Colonies/Cultures", "setting": "[8]; stimulus 10 ng", "result": 18},
      {"measurement": "Colonies/Cultures", "setting": "[8]; [10]", "result": 2},
      {"measurement": "Frequency of colonies from LIF-pretreated cells, lower compared to control cells", "setting": "[9]; Al-5, 100 ng/ml LIF for seven days in suspension, then agar 5×10^3 cells per ml, 18 days, three experiments", "result": "35-55%"},
      {"measurement": "Proportion of large colonies in LIF stimulated agar cultures", "setting": "[9]; pretreatment with LIF in suspension cultures for 7-14 days", "result": "further reduced"}
    ]}
  ]
}
